Measurements: patent publication US20240294545A1 (CSPC Zhongqi Pharmaceutical Technology (Shijiazhuang) Co., …, priority 2020, published 2024)
Marks after values point to notes of the source that are not given here.

Experiments:
[1] = system: ATM-phosphorylated KAP1; test: Intracellular ATM-phosphorylated KAP1 level, ICW assay in MCF7 cells; format: cell-based, Human; conditions: Homo sapiens, light or radiation study; MCF7 cells, 2 h compound, 10 Gy irradiation, further 1 h; read-out: pKAP1 IC50
[2] = system: intracranial murine glioma GL-261-Luc; test: Intracranial murine glioma GL-261-Luc model, combined with radiotherapy; format: in vivo, C57BL/6 mice; conditions: for D17 BLI / D 17 TGI: compound 10 mg/kg intragastric qd × 5 + IR 2 Gy; for D17 BLI: day 17; for D 17 TGI: day 17, from bioluminescence
Experimental: 8 Efficacy Test of the Compounds of the Present Disclosure Combined with Radiotherapy in the Intracranial Murine Glioma GL-261-Luc Model
8.1 Experimental Animals: C57BL/6 Mice, SPF, Female, 19 to 22 g.
GL-261-Luc tumor cells, DMEM medium:fetal bovine serum=90%:10%, accompanied by adding […] L-Glu, 37° C., 5% CO2.
Female C57BL/6 mice were anesthetized with Shutai 50 (60 mg/mL) and thiazine (1.5 mg/mL). Buprenorphine (0.1 mg/kg) was injected subcutaneously 30 min before operation and 6 h after operation to relieve pain. The operation area was disinfected with 70% ethanol solution. A sagittal incision was made on the parietal-occipital bone of anesthetized mice with a sterile scalpel, after cleaning the exposed skull surface with 3% hydrogen peroxide solution, tumor cells were injected. After injection, the skull was cleaned with 3% hydrogen peroxide solution, dried with a sterile dry cotton swab, and the incision was sutured. The state of mice was examined continuously to ensure that mice fully recovered from anesthesia.
The inoculated mice were weighed and intraperitoneally injected with […] (150 mg/kg). After 10 min injection, the animals were anesthetized with a mixture of oxygen and isoflurane. When the animal was completely anesthetized, it was moved into the imaging room for bioluminescence detection. The bioluminescence signal of the whole animal was measured and recorded for the image.
Bioluminescence detection was performed on the second day after operation, and the tumor-bearing mice were randomly divided into groups according to the intensity of bioluminescence. The specific groups were as follows. The administration route was intragastric administration and then JR 1 h after administration.
After grouping, bioluminescence detection was performed 1 to 2 times a week, according to the bioluminescence data, tumor growth inhibitory rate was calculated as follows: TGI (%)=[1−(Ti−T0)/(Vi−V0)]×100, wherein Ti represents the mean bioluminescence data of a given treatment group on a certain day; T0 represents the mean bioluminescence data of this treatment group at the beginning of administration; Vi represents the mean bioluminescence data of the vehicle control group on a certain day (the same day as that in Ti); V0 represents the mean bioluminescence data of the vehicle control group at the beginning of administration.

[3] = system: subcutaneous xenograft tumor of human glioblastoma LN-18; test: LN-18 subcutaneous xenograft, combined with radiotherapy; format: in vivo, NOG mice; conditions: compound 10 mg/kg intragastric qd × 5 + IR 1 Gy, day 17
Summary of the method: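 Female NOG mice (18–22 g) bearing subcutaneous LN-18 tumours (1.5*10^7 cells, right costal region) were grouped at 100–150 mm^3; radiotherapy followed compound dosing by 1 h. Caliper volumes twice weekly (0.5×long×short^2); TGI % derived from treated vs control mean volume changes from day 0.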

Row | IC50 [1] [nM] | Compound | D17 BLI [2] | D 17 TGI [2] [%] | D 17 TGI [3] [%] | D 17 TV (MEAN ± SD) [3] | anti-tumor activity, in words ([2]; combined with radiotherapy, compared with AZD1390)
1 | 0.45 | CC(C)n1c(=O)n(C)c2cnc3cc(F)c(-c4ccc(OCCCN5CCCCC5)nc4)cc3c21 [AZD1390, reference compound] | 4.90*** LOG10 | 124.08 | 82.8 | 294 ± 52***^# mm^3 | –
2 | 1.75 | Cn1c(=O)n2c3c4c(c(-c5ccc(OCCCN6CCCCC6)nc5)c(F)cc4ncc31)NCC2(C)C [Example A-193, 6-fluoro-2,10,10-trimethyl-7-(6-(3-(piperidin-1-yl)propoxy)pyridin-3-yl)-2,8,9,10-tetrahydro-1H-2,4,8,10a-tetraazanaphtho[2,1,8-cde]azulen-1(2H)-one] | 4.94*** LOG10 | 122.49 | 81.1 | 310 ± 61***^# mm^3 | equivalent to that of AZD1390
